Experimental data taken from US10208088B1, “Low molecular polypeptide ZY4 and applications thereof” (Sichuan Synlight Biotech Ltd., priority 2015, dated 2019).
Converted amounts (≈) assume the structure as drawn. Like-named read-outs stand apart in the source and are kept apart here.

Tests used:
[1] = system: Candida albicans; conditions: 37° C., 24 h
Method: (§4) Prepare Escherichia coli, Candida albicans, Staphylococcus aureus, Bacillus subtilis, Staphylococcus haemolyticus, Staphylococcus epidermidis, Staphylococcus cohnii solutions respectively, incubate at 37° C. for 18 h, for standby;
(§5) Prepare Broth Agar Medium, and sterilize it for standby;
(§6) Dissolve the Broth Agar Medium, cool down to 50° C., add 1 ml of Escherichia coli, Candida albicans, Staphylococcus aureus, Bacillus subtilis, Staphylococcus haemolyticus, Staphylococcus epidermidis, Staphylococcus cohnii solutions respectively, shake gently and pour into a sterile petri dish, gently shake the medium to evenly pave on the dish;
(§7) Place the filters into a cooled dish using a sterile tweezer orderly, cover with a tile cover and mark, then place to a 37° C. incubator for incubation for 24 h;

[2] = system: Staphylococcus epidermidis (09A3726 anti-ampicillin); conditions: 37° C., 24 h
Method: as §4, §5, §6, §7

[3] = system: P. acnes ATCC6919; conditions: 2 mg/ml ointment on left ear skin, treated for 1 day; 0.20 mm before treatment, PEG control 0.43 mm
Method: Select Kunming male mice at a weight of 18 g each, and randomly divide them into 3 groups, 9 mice each group, respectively the treatment group, positive control group, negative control group. Each mouse is anaesthetized with 50 ul of ketamine by intraperitoneal injection, and then injected with 20 ul of resuspended bacteria solution via intracutaneous injection in the left ear of each mouse;
Disinfect the left ears of mice with a clean alcohol cotton ball, and measure the thickness of the ears of mice, results are shown in FIG. 2.

[4] = system: Staphylococcus cohnii (09B2490 anti-ampicillin); conditions: 37° C., 24 h
Method: as §4, §5, §6, §7

[5] = system: liver cancer cell HepG2; conditions: NS control 1.0
Method: 1. Collect the liver cancer cell HepG2 in the logarithmic phase to prepare cell suspension, adjust its concentration to 5×10^6-10×10^6/ml, add 100 ul to each hole, pave the plate to adjust the cell density to 1000-10000 holes; fill the holes on the edges with sterile PBS;
(§1) 2. Incubate cells under the condition of 5% CO2 and 37° C. until the cell monolayer are paved on 96-hole plate bottom; after cell adhesion for 2-12 h, add the low molecular polypeptide ZY4 at a concentration of 100 ug/ml and 200 ug/ml, and the same volume of NS as control, to incubate for 16-48 h under the condition of 5% CO2 and 37° C., and then observe under an inverted microscope;
(§2) 3. Add 20 ul of 5 mg/ml MTT solution to each hole, to continue to culture 4 h, and then draw the culture solution in the hole;
(§3) 4. Add 150 ul of DMSO to each hole, place to a shaker for oscillation 10 min at a low speed, to allow the crystals fully dissolved, measure the absorbance values of each hole at OD 490 nm using a ELISA Reader; at the same time, set the zero hole and control hole.

[6] = system: Staphylococcus haemolyticus (09A4394 anti-ampicillin); conditions: 37° C., 24 h
Method: as §4, §5, §6, §7

[7] = system: breast cancer cell MDA-435
Method: 1. Collect the breast cancer cell MDA-435 in the logarithmic phase to prepare cell suspension, adjust its concentration to 5×10^6-10×10^6/ml, add 100 ul to each hole, pave the plate to adjust the cell density to 1000-10000 holes; fill the holes on the edges with sterile PBS;
as §1, with “50-300” for “100 ug/ml and 200”
as §2, §3

[8] = system: P. acnes ATCC11817; conditions: 2 mg/ml ointment on left ear skin, once every 8 h, 3 times, mice sacrificed 24 h later; PEG control 9.44×10^5
Method: Select Kunming male mice at a weight of 18 g each, and randomly divide them into 3 groups, 6 mice each group, respectively the treatment group, positive control group, negative control group. Each mouse is anaesthetized with 120 ul of 1% pentobarbital sodium by intraperitoneal injection, and then injected with 20 ul of resuspended bacteria solution via intracutaneous injection in the left ear of each mouse;
Disinfect the left ears of mice with a clean alcohol cotton ball, cut off the left ears into pieces, transfer to a homogenizer for homogenization. Add 1 ml of NS for homogenization for one ear;
Dilute the homogenate to 1,000-fold, take 50 ul of diluent and apply to a brain heart infusion agar plate, culture at 37° C. under the anaerobic condition for 72 h, and count the colonies.

[9] = system: lung cancer cell A549; test: MTT assay against lung cancer cell A549; assay type: cell-based
Method: 1. Collect the lung cancer cell A549 in the logarithmic phase to prepare cell suspension, adjust its concentration to 5×10^6-10×10^6/ml, add 100 ul to each hole, pave the plate to adjust the cell density to 1000-10000 holes; fill the holes on the edges with sterile PBS;
as §1, with “ug/ml, paclitaxel at a concentration of 10 ug/ml” for “ug/ml,”, “5 ug/ml” for “the same volume of NS as control,”
as §2, §3

[10] = system: Bacillus subtilis; conditions: 37° C., 24 h
Method: as §4, §5, §6, §7

[11] = system: Escherichia coli; conditions: 37° C., 24 h
Method: as §4, §5, §6, §7

[12] = system: Staphylococcus aureus (09B2499); conditions: 37° C., 24 h
Method: as §4, §5, §6, §7

[13] = system: Staphylococcus aureus; conditions: 37° C., 24 h
Method: as §4, §5, §6, §7

[14] = system: gastric cancer cell SGC7901
Method: 1. Collect the gastric cancer cell SGC7901 in the logarithmic phase to prepare cell suspension, adjust its concentration to 5×10^6-10×10^6/ml, add 100 ul to each hole, pave the plate to adjust the cell density to 1000-10000 holes; fill the holes on the edges with sterile PBS;
as §1, with “50-300” for “100 ug/ml and 200”
as §2, §3

[15] = system: melanoma cell A357; conditions: NS control 1.0
Method: 1. Collect the melanoma cell A357 in the logarithmic phase to prepare cell suspension, adjust its concentration to 5×10^6-10×10^6/ml, add 100 ul to each hole, pave the plate to adjust the cell density to 1000-10000 holes; fill the holes on the edges with sterile PBS;
as §1, §2, §3

Compound: CC(C)[C@H](N)C(=O)N[C@H]1CSSC[C@@H](C(=O)N[C@H](C(N)=O)C(C)C)NC(=O)[C@H](Cc2c[nH]c3ccccc23)NC(=O)[C@H](CCCCN)NC(=O)[C@H](CCCCN)NC(=O)[C@H](Cc2c[nH]c3ccccc23)NC(=O)[C@H](CCCCN)NC(=O)[C@H](CCCNC(=N)N)NC(=O)[C@H](CCCCN)NC(=O)[C@H](Cc2c[nH]c3ccccc23)NC(=O)[C@H](CCCCN)NC(=O)[C@H](CCCCN)NC(=O)[C@H](Cc2c[nH]c3ccccc23)NC(=O)[C@H](CCCNC(=N)N)NC(=O)[C@H](CCCCN)NC1=O [ZY4]
- Minimum inhibitory concentration [1]: 2.12 µg/mL (≈ 0.893 µM)
- Minimum inhibitory concentration [2]: 2.45 µg/mL (≈ 1.03 µM)
- thickness of mice ear [3]: 0.25 mm
- Minimum inhibitory concentration [4]: 1.10 µg/mL (≈ 0.463 µM)
- OD value (MTT, OD 490 nm) ([5]; HepG2, 100 ug/ml ZY4, 16-48 h): 0.89
- OD value (MTT, OD 490 nm) ([5]; HepG2, 200 ug/ml ZY4, 16-48 h): 0.6
- Minimum inhibitory concentration [6]: 2.17 µg/mL (≈ 0.914 µM)
- OD value (MTT, OD 490 nm) ([7]; MDA-435, 50 ug/ml ZY4, 16-48 h): 0.7
- OD value (MTT, OD 490 nm) ([7]; MDA-435, 100 ug/ml ZY4, 16-48 h): 0.61
- OD value (MTT, OD 490 nm) ([7]; MDA-435, 200 ug/ml ZY4, 16-48 h): 0.20
- OD value (MTT, OD 490 nm) ([7]; MDA-435, 300 ug/ml ZY4, 16-48 h): 0.17
- CFU of P. acnes after treatment [8]: 2.1×10^5 CFU
- OD value (MTT, OD 490 nm) ([9]; A549, 100 ug/ml ZY4, 16-48 h): 0.5
- OD value (MTT, OD 490 nm) ([9]; A549, 200 ug/ml ZY4, 16-48 h): 0.3
- Minimum inhibitory concentration [10]: 1.10 µg/mL (≈ 0.463 µM)
- Minimum inhibitory concentration [11]: 12.15 µg/mL (≈ 5.12 µM)
- Minimum inhibitory concentration [12]: 2.25 µg/mL (≈ 0.948 µM)
- Minimum inhibitory concentration [13]: 2.14 µg/mL (≈ 0.901 µM)
- OD value (MTT, OD 490 nm) ([14]; SGC7901, 50 ug/ml ZY4, 16-48 h): 0.65
- OD value (MTT, OD 490 nm) ([14]; SGC7901, 100 ug/ml ZY4, 16-48 h): 0.57
- OD value (MTT, OD 490 nm) ([14]; SGC7901, 200 ug/ml ZY4, 16-48 h): 0.2
- OD value (MTT, OD 490 nm) ([14]; SGC7901, 300 ug/ml ZY4, 16-48 h): 0.09
- OD value (MTT, OD 490 nm) ([15]; A357, 100 ug/ml ZY4, 16-48 h): 1.0
- OD value (MTT, OD 490 nm) ([15]; A357, 200 ug/ml ZY4, 16-48 h): 0.72

Compound: CC(=O)O[C@H]1C(=O)[C@@]2(C)[C@H]([C@H](OC(=O)c3ccccc3)[C@]3(O)C[C@H](OC(=O)[C@H](O)[C@@H](NC(=O)c4ccccc4)c4ccccc4)C(C)=C1C3(C)C)[C@]1(OC(C)=O)CO[C@@H]1C[C@@H]2O [paclitaxel, reference compound]
- OD value (MTT, OD 490 nm) ([9]; A549, 10 ug/ml paclitaxel (first statement), 16-48 h): 0.5
- OD value (MTT, OD 490 nm) ([9]; A549, 10 ug/ml paclitaxel (second statement), 16-48 h): 0.7
